Test results: ChEMBL document CHEMBL3286360, “Tuning the antimicrobial pharmacophore to enable discovery of short lipopeptides with multiple modes of action” (Eur J Med Chem, 2014)
≈ marks a conversion by molar mass, not a printed value. Values belong to the compound of their own block, whether it stands above or below them. Calls of active or inactive are those of the source. No cut-off for these calls is given here. Where a SMILES comes first, the peptide text is derived from it. The star is where a group is joined. Decanoyl = CCCCCCCCCC(=O)*

Legend:
Candida albicans = assay: Antimicrobial activity against Candida albicans ATCC 14053 after 17 to 20 hrs by serial dilution method; assay type: functional
Escherichia coli [1] = assay: Antimicrobial activity against Escherichia coli ATCC 25922 assessed as disruption of membrane integrity measured as PI dye influx at 50 ug/ml after 20 mins by fluorescence microscopy; assay type: functional, organism-based
[2] = Cytotoxicity against human TZM-b1 cells assessed as survival at 40 ug/ml after 2 hrs by flow cytometry; assay type: cell-based; conditions: read-out: Survival
[3] = Cytotoxicity in human erythrocytes assessed as hemolysis at 250 ug/ml after 1 hr relative to control; assay type: cell-based, Erythrocyte; conditions: read-out: Activity
Escherichia coli [4] = assay: Antimicrobial activity against Escherichia coli ATCC 25922 after 17 to 20 hrs by serial dilution method; assay type: functional
Priestia megaterium = assay: Binding affinity to Bacillus megaterium pHis1525 DNA at 25 to 50 ug/ml after 30 mins by agarose gel electrophoresis
[5] = Cytotoxicity against human TZM-b1 cells assessed as cell death at 40 ug/ml after 1 hr by flow cytometry (reference value: 0 to 0.20 %); assay type: cell-based; conditions: tzm-b1, 1 h
Staphylococcus aureus [6] = assay: Antimicrobial activity against Staphylococcus aureus ATCC 12600 assessed as disruption of membrane integrity measured as PI dye influx at 50 ug/ml after 20 mins by fluorescence microscopy; assay type: functional, organism-based
[7] = Cytotoxicity against human TZM-b1 cells assessed as cell death at 40 ug/ml after 2 hrs by flow cytometry (reference value: 0 to 0.20 %); assay type: cell-based; conditions: tzm-b1, 2 h
Staphylococcus aureus [8] = assay: Antimicrobial activity against Staphylococcus aureus ATCC 12600 assessed as cell death at 40 ug/ml after 1 hr by flow cytometry; assay type: functional
Staphylococcus aureus [9] = assay: Antimicrobial activity against Staphylococcus aureus ATCC 12600 assessed as disruption of membrane integrity measured as PI dye influx at 250 ug/ml after 20 mins by fluorescence microscopy; assay type: functional, organism-based
Staphylococcus aureus [10] = assay: Antimicrobial activity against Staphylococcus aureus ATCC 12600 after 17 to 20 hrs by serial dilution method; assay type: functional
Escherichia coli [11] = assay: Antimicrobial activity against Escherichia coli ATCC 25922 assessed as disruption of membrane integrity measured as PI dye influx at 250 ug/ml after 20 mins by fluorescence microscopy; assay type: functional
[12] = Cytotoxicity against human TZM-b1 cells assessed as cell death after 48 hrs by MTT assay; assay type: cell-based; conditions: tzm-b1, 48 h
[13] = Cytotoxicity in human erythrocytes assessed as hemolysis at 125 ug/ml after 1 hr relative to control; assay type: cell-based, Erythrocyte; conditions: read-out: Activity
[14] = Cytotoxicity against human TZM-b1 cells assessed as cell death at 125 ug/ml after 48 hrs by MTT assay; assay type: cell-based; conditions: tzm-b1, 48 h
[15] = Cytotoxicity against human TZM-b1 cells assessed as cell death at 500 ug/ml after 48 hrs by MTT assay; assay type: cell-based; conditions: tzm-b1, 48 h

Compound: CCCCCCCCCC(=O)N[C@@H](CCCNC(=N)N)C(=O)N[C@H](C(=O)N[C@@H](CCCCN)C(=O)N[C@@H](Cc1c[nH]c2ccccc12)C(=O)N[C@@H](CCCCN)C(N)=O)[C@@H](C)CC (Decanoyl-RIKWK-NH2)
MIC (Candida albicans): > 62.5 µg/mL | Activity (Escherichia coli [1]): Active | viability at 2 h, 40 ug/ml [2]: > 99% | hemolysis at 1 h, 250 ug/ml [3]: < 10% | MIC (Escherichia coli [4]): 15.6 µg/mL (≈ 17.7 µM) | Activity (Priestia megaterium): inactive | Activity [5]: 0.074% | Activity (Staphylococcus aureus [6]): Active | Activity [7]: 0.083% | Activity (Staphylococcus aureus [8]): >95% | Activity (Staphylococcus aureus [9]): Active | MIC (Staphylococcus aureus [10]): 7.8 µg/mL (≈ 8.83 µM) | Activity (Escherichia coli [11]): Active

Compound: CCCCCCCCCC(=O)N[C@@H](CCCNC(=N)N)C(=O)N[C@@H](CCCCN)C(=O)N[C@@H](Cc1c[nH]c2ccccc12)C(=O)N[C@@H](Cc1c[nH]c2ccccc12)C(=O)N[C@@H](CCCCN)C(N)=O (Decanoyl-RKWWK-NH2)
MIC (Candida albicans): 15.6 µg/mL (≈ 16.3 µM) | Activity (Escherichia coli [1]): Active | viability at 2 h, 40 ug/ml [2]: > 99% | Activity [12]: Toxic | MIC (Escherichia coli [4]): 3.9 µg/mL (≈ 4.08 µM) | Activity (Priestia megaterium): Active | Activity [5]: 0.072% | Activity (Staphylococcus aureus [6]): Active | Activity [7]: 0.128% | Activity (Staphylococcus aureus [8]): >95% | Activity (Staphylococcus aureus [9]): Active | MIC (Staphylococcus aureus [10]): 3.9 µg/mL (≈ 4.08 µM) | hemolysis at 1 h, 125 ug/ml [13]: < 10% | Activity [14]: Toxic | CC50 (Escherichia coli [11]; ATCC 25922, 20 min): 115 µg/mL (≈ 120 µM)

MIC (Escherichia coli [4]): > 62.5 µg/mL | MIC (Staphylococcus aureus [10]): 62.5 µg/mL
Compound: H-RKWWK-NH2
Activity [15]: Non-toxic
